Columns and labels:
primary AML cells [1] = assay: FMCA cytotoxicity, primary AML patient cells; format: cell-based, human
MV4-11 cells [2] = assay: FMCA cytotoxicity, MV4-11 cell line; format: cell-based, human
RPS6K = assay: 320-kinase panel screen, radiometric protein kinase assay, RPS6K; format: biochemical; conditions: 1 μM
FGFR2 = FGFR2 (Homo sapiens, UniProt P21802); assay: biochemical
primary AML cells [3] = assay: Mouse hollow-fiber model, primary AML cells; format: in vivo; conditions: NMRI male mice, 15 mg/kg s.c. twice daily, 6 days
AKT 1, 2, 3 = assay: AKT radiometric protein kinase assay; format: biochemical; conditions: 1 μM, 60 min
[4] = tested on: HeLa, ACHN and NCI-H69 cell lines; assay: FMCA cytotoxicity, solid tumor cell lines; format: cell-based, human; conditions: 72 h
VEGFR2 = VEGFR2 (Homo sapiens, UniProt P35968); assay: Full dose-response kinase assay; format: biochemical
VEGFR2, sequence (P35968 20-1356): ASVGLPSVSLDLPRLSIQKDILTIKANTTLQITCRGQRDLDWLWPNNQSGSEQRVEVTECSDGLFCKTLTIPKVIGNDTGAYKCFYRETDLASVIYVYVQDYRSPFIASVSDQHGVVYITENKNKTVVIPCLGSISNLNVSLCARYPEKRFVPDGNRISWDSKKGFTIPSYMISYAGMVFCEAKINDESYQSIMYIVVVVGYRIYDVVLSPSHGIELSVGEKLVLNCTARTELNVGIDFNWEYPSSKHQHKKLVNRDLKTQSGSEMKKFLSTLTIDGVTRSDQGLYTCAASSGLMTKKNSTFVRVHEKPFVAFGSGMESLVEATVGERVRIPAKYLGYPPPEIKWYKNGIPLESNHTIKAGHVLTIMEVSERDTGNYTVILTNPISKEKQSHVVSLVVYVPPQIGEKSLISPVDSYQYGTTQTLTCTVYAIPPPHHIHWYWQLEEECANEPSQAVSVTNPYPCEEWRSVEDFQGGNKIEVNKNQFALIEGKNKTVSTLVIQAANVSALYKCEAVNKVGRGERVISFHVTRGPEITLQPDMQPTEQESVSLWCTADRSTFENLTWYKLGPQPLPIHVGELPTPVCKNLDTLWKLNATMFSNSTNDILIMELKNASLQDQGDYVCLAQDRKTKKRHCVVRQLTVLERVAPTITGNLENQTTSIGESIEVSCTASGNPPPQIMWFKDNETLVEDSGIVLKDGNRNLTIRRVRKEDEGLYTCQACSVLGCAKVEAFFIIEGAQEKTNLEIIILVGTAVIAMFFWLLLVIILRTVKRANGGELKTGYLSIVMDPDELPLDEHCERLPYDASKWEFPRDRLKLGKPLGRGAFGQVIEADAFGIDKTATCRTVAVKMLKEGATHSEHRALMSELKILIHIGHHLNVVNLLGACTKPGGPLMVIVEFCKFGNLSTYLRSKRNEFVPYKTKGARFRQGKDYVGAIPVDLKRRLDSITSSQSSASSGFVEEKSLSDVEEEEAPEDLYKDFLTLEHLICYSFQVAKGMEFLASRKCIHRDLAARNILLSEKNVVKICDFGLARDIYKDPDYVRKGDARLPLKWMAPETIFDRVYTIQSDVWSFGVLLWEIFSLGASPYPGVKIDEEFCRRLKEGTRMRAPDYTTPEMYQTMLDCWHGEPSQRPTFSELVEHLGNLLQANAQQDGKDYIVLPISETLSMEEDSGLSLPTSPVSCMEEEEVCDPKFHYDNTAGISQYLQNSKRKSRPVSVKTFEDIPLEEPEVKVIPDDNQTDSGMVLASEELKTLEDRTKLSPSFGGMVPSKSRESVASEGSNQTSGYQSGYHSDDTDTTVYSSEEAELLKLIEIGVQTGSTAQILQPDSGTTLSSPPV

Plasma protein binding = format: in vitro ADME
CDC-like kinase 1 (CLK1) = CDC-like kinase 1 (CLK1) (Homo sapiens, UniProt P49759); assay: Full dose-response kinase assay; format: biochemical
CDC-like kinase 1 (CLK1), sequence (P49759 whole entry): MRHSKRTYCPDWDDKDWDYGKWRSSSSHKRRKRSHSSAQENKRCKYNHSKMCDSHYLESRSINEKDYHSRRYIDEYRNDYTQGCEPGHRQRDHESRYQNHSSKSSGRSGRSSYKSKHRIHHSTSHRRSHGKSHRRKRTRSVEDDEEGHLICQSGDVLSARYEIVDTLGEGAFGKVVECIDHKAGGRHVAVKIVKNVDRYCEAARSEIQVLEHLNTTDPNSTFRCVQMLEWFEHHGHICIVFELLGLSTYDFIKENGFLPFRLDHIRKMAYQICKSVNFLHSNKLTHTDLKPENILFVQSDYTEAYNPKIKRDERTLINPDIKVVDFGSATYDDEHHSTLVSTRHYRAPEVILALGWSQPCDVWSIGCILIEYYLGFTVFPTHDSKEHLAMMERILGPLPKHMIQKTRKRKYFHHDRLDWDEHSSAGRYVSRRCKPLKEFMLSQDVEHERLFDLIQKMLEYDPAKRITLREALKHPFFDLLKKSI

MOLM-13 cells = assay: Alamar Blue cytotoxicity, MOLM-13 cells; format: cell-based; conditions: Homo sapiens, MOLM-13, read-out: cytotoxic activity IC50, MOLM-13
CLK kinases = assay: 320-kinase panel screen, radiometric protein kinase assay, CLK kinases; format: biochemical; conditions: 1 μM, 60 min incubation
MV4-11 cells [5] = assay: Mouse hollow-fiber model, MV4-11; format: in vivo; conditions: NMRI male mice, 15 mg/kg s.c. twice daily, 6 days
[6] = Pharmacokinetic studies in C57 black mice; format: in vivo, mouse
MV4-11 cells [7] = assay: Combination studies with cytarabine or daunorubicin
ERK 1, 2 = assay: ERK radiometric protein kinase assay; format: biochemical; conditions: 1 μM, 60 min
RPS6KA = assay: Full dose-response kinase assay; format: biochemical
MV4-11 cells [8] = assay: Apoptosis assay; format: cell-based, human; conditions: 10 μM, up to 48 h

FGFR2, sequence (P21802 22-821): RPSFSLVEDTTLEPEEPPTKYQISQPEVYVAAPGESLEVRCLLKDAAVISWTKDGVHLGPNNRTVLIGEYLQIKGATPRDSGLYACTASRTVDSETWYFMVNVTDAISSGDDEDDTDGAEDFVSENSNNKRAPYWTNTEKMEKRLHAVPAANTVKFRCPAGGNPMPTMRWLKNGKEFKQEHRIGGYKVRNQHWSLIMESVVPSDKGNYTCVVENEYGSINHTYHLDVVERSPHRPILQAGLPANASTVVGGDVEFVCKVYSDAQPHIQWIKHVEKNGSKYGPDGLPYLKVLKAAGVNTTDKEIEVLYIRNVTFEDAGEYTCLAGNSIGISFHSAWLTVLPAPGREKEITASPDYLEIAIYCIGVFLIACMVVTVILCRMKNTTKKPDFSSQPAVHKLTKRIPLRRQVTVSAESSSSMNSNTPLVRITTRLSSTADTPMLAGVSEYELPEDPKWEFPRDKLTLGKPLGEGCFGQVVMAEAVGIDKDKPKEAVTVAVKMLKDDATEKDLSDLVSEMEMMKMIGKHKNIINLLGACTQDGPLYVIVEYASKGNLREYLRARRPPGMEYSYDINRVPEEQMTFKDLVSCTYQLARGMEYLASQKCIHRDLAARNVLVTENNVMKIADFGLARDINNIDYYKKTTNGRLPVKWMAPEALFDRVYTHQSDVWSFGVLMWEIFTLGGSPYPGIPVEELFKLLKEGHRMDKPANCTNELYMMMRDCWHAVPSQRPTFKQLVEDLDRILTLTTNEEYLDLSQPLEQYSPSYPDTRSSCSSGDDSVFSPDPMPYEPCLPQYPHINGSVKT

CC(C)(C)c1cc(NC(=O)Nc2ccc(-c3cn4c(n3)sc3cc(OCCN5CCOCC5)ccc34)cc2)no1 [AC220, reference compound]
cytotoxic response in primary AML samples (primary AML cells [1]; FMCA, 11 additional AML patient samples (UPN 14-24)): varied considerably | cytotoxic efficacy in MV4-11 (MV4-11 cells [2]; FMCA dose-response): full efficacy | inhibition of RPS6K in kinase-panel screen (RPS6K): did not inhibit

Nc1ncc(-c2ccncc2)nc1Nc1ccc2[nH]ccc2c1 [AKN-028, N-3-(1H-indol-5-yl)-5-pyridin-4-yl-pyrazine-2,3-diamine]
IC50 (FGFR2): 1200 nM | IC50 (primary AML cells [1]; Homo sapiens, read-out: mean IC50, primary AML samples, n=15 samples): 1000 nM | IC50 (MV4-11 cells [2]; Homo sapiens, MV4-11, 72 h, read-out: cytotoxic activity IC50, MV4-11): < 50 nM | net growth in hollow fibers, primary AML sample UPN25 (primary AML cells [3]): no significant inhibition | net growth in hollow fibers, primary AML sample UPN26 (primary AML cells [3]): inhibited net growth | inhibition of AKT 1, 2, 3 (AKT 1, 2, 3): No direct inhibition | cytotoxic effect in solid tumor cell lines HeLa, ACHN and NCI-H69 [4]: Almost no effect | IC50 (VEGFR2): 520 nM | fraction unbound (Plasma protein binding): 0.035 | IC50 (CDC-like kinase 1 (CLK1)): 140 nM | remaining enzyme activity, RPS6K (RPS6K; 60 min incubation): Less than 20% | IC50 (MOLM-13 cells): < 50 nM | remaining enzyme activity, CLK kinases (CLK kinases): Less than 20% | net growth in hollow fibers, MV4-11 (MV4-11 cells [5]): reduced the tumor mass | plasma target concentration ([6]; IC90 divided by fraction unbound): 1 to 3 µM | predicted exposure time above plasma target concentration ([6]; hollow-fiber experiment, twice daily, target 1–3 μM): 1 h | drug interaction (mean combination index) with cytarabine (MV4-11 cells [7]; cytarabine simultaneously or 24 h before AKN-028, cytarabine:AKN-028 2.5:1): synergy | drug interaction (mean combination index) with daunorubicin (MV4-11 cells [7]; daunorubicin simultaneously or 24 h before AKN-028, daunorubicin:AKN-028 1:20): synergy | drug interaction (mean combination index) with cytarabine (MV4-11 cells [7]; pre-treated with AKN-028 24 h, followed by cytarabine): antagonism | drug interaction (mean combination index) with daunorubicin (MV4-11 cells [7]; pre-treated with AKN-028 24 h, followed by daunorubicin): antagonism | inhibition of ERK 1, 2 (ERK 1, 2): No direct inhibition | IC50 RPS6KA (RPS6KA): 220 nℳ nM | apoptosis / caspase 3 activation in MV4-11 (MV4-11 cells [8]): induced apoptosis by activation of caspase 3

— article PMC3432483 (Blood Cancer Journal, 2012)
